Source: publication PMC8628145 (Cancer chemotherapy and pharmacology, 2021)
Values joined by “and” are separate entries in the source; they are usually repeats but may differ in a detail not shown here. Equal entries are not always repeated.

Tests used:
p-Tyr1234/5-Met = p-Tyr1234/5-Met (Homo sapiens, UniProt P08581); assay: Skin biopsy immunohistochemistry, p-MET expression; type: in vivo; conditions: skin biopsies following tivantinib (with bevacizumab), C1D15
Met = Met (Homo sapiens, UniProt P08581); assay: Skin biopsy immunohistochemistry, total MET expression; type: in vivo; conditions: skin biopsies after tivantinib treatment
[1] = system: human RKO colon cancer cells; assay: Immunoblot of α- and β-tubulin expression in RKO cells; type: cell-based; conditions: supplemental Fig. 3A
PlGF = assay: Plasma placental growth factor level; type: in vivo, human
tubulin = assay: Tubulin polymerization assay; type: biochemical; conditions: supplemental Fig. 3B
[2] = day 5, previously reported; cited from earlier work
beta-tubulin = assay: Skin biopsy immunohistochemistry, tubulin expression; type: in vivo, human; conditions: skin biopsies, oral tivantinib for two weeks (with bevacizumab), C1D15
VEGF-A = assay: Plasma VEGF-A level; type: in vivo, human
CYP3A4 = conditions: at 50 µM (~ 18 µg/mL); ArQule data on file; cited from earlier work
[3] = Plasma pharmacokinetics of tivantinib and metabolites; conditions: for Cl/F: first dose, based on AUC0–inf; for half-life: t½
HGF = assay: Plasma HGF level; type: in vivo, human
[4] = human, in vivo, 1 day
β-tubulin = assay: Total β-tubulin expression in patient PBMCs by immunoblot; type: in vivo, human; conditions: following tivantinib treatment, data not shown
bFGF = assay: Plasma bFGF level; type: in vivo, human
soluble VEGFR1 (sVEGFR1) = assay: Plasma soluble VEGFR1 level; type: in vivo, human
[5] = addition of tivantinib to bevacizumab

Sequence of p-Tyr1234/5-Met (P08581 25-1390): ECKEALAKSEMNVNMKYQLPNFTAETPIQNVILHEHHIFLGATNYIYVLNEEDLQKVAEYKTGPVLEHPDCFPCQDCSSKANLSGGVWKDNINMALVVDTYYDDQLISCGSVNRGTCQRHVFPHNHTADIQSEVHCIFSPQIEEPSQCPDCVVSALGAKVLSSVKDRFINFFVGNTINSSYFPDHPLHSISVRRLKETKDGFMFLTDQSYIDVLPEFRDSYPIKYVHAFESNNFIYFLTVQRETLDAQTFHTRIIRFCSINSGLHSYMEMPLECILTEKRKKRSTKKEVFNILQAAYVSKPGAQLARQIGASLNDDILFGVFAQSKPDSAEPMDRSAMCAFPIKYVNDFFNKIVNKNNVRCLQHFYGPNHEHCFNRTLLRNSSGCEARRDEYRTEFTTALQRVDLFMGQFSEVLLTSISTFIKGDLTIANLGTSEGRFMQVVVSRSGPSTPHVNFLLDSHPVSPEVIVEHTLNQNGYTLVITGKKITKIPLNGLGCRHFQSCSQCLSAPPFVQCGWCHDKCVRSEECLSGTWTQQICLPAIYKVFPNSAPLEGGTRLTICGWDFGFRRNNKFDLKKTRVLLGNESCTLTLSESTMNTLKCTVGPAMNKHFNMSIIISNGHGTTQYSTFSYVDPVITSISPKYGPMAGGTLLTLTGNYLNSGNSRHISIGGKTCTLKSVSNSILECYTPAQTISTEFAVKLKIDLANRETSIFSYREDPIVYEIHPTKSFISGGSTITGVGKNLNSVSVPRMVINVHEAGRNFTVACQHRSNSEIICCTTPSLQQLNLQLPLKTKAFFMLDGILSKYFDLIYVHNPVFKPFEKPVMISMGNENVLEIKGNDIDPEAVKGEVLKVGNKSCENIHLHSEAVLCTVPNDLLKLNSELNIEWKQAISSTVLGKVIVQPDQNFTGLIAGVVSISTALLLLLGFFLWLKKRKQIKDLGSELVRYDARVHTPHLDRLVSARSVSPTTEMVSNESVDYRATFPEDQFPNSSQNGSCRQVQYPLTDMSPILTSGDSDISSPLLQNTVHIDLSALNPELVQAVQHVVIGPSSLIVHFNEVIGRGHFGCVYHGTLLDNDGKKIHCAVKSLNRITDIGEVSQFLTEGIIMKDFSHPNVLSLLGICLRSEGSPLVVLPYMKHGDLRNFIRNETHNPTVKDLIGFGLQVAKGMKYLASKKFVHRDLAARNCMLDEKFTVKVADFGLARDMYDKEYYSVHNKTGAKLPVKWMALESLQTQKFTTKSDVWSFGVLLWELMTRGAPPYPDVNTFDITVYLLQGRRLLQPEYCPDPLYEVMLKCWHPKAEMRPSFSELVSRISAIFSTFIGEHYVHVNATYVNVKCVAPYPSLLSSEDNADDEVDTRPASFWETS
Sequence of Met (P08581 25-1390): as above

## O=C1NC(=O)[C@@H](c2cn3c4c(cccc24)CCC3)[C@@H]1c1c[nH]c2ccccc12 [tivantinib]
p-Tyr1234/5-Met
  Patients with reduced p-MET expression in skin: 7/11 and 7 of 11
Met
  Total MET expression in the cytoplasm (skin): remained unchanged
[1]
  α- and β-tubulin protein expression: loss of both α- and β-tubulin protein expression
PlGF; [5]
  Plasma PIGF concentrations: did not alter PIGF concentrations
tubulin
  Tubulin polymerization: inhibited tubulin polymerization, but not to the same extent as vincristine
[2]
  Steady-state clearance: 11.8 L/h
beta-tubulin
  Patients with substantial reductions in tubulin expression in skin: 4/11 and 4 of 11
VEGF-A; [5]
  Plasma VEGF-A concentrations: did not alter VEGF-A concentrations
CYP3A4
  Time-dependent inhibition of CYP3A4: exhibits time-dependent inhibition
[3]; Total (N = 11), all dose levels, day 1, plasma, mean (SD)
  t½: 5.1 (2.4) h
[3]; Total (N = 11), mean (SD)
  Cl/F: 24.9 L/h
[3]; human, plasma, oral, AUC0–8, tivantinib 360/240 mg AM/PM (N = 1), day 1, plasma
  AUC(0-t): 5.02 µg·h/mL
[3]; human, plasma, oral, Tmax, tivantinib 120/120 mg AM/PM (N = 1), day 1, plasma
  Tmax: 2.5 h
[3]; human, plasma, oral, Tmax, tivantinib 360/240 mg AM/PM (N = 1), day 1, plasma
  Tmax: 3 h
[3]; human, plasma, oral, tivantinib 120/120 mg AM/PM (N = 1), day 1, plasma
  half-life: 8.2 h
[3]; human, plasma, oral, tivantinib 360/240 mg AM/PM (N = 1), day 1, plasma
  half-life: 9.2 h
[3]; human, plasma, po, Time of peak plasma concentration, day 1, all 11 patients
  Tmax: ~3 h
[3]; tivantinib 120/120 mg AM/PM (N = 1), day 1, plasma
  AUC0–8: 5.57 µg·h/mL
[3]; tivantinib 120/120 mg AM/PM (N = 1)
  Cl/F: 9.43 L/h
[3]; tivantinib 360/240 mg AM/PM (N = 1)
  Cl/F: 25.8 L/h
[3]; twice daily dosing
  Time for accumulation to reach steady-state: ≤ 24 h
HGF; addition of tivantinib, in the six patients with increase after bevacizumab
  Plasma HGF concentrations: decreased in these same patients
[4]
  Dose-normalised exposure on day 1: 5.82 ng/mL/mg
β-tubulin
  Tubulin expression in patient PBMCs: No significant differences
bFGF; day 15, following 14 days of tivantinib added to bevacizumab, p = 0.047
  Plasma bFGF concentrations: returned to baseline in most patients
Soluble VEGFR1 (sVEGFR1); following tivantinib administration
  Plasma sVEGFR1 concentrations: increased in four patients

## CC[C@]1(O)C[C@H]2CN(CCc3c([nH]c4ccccc34)[C@@](C(=O)OC)(c3cc4c(cc3OC)N(C=O)[C@H]3[C@@](O)(C(=O)OC)[C@H](OC(C)=O)[C@]5(CC)C=CCN6CC[C@]43[C@@H]65)C2)C1 [vincristine, reference compound]
[1]
  α- and β-tubulin protein expression: loss of both α- and β-tubulin protein expression

## bevacizumab [reference compound]
PlGF; after bevacizumab treatment
  Average increase of plasma PIGF: 60%
PlGF; after bevacizumab treatment, p = 0.005
  Patients with increased plasma PIGF: 10 of 11
VEGF-A; after bevacizumab treatment
  Plasma VEGF-A: decreased expression of VEGF-A in two patients (#01; #07) and increases in eight patients
HGF; after bevacizumab treatment
  Plasma HGF concentrations: increased in six patients
bFGF; after bevacizumab-only lead-in (day 1 vs day − 15), p = 0.008
  Patients with increased plasma bFGF: 8 of 11
Soluble VEGFR1 (sVEGFR1); after bevacizumab administration, five patients with elevated baseline
  Plasma sVEGFR1 concentrations: decreased
